Data taken from ChEMBL document CHEMBL5131555, “Antibacterial Nanoassembled Calix[4]arene Exposing Choline Units Inhibits Biofilm and Motility of Gram Negative Bacteria” (2022).
Calls of active or inactive are those of the source. The calls are words filed in the database; no cut-off is given here.

Tests used:
[1] = test system: Pseudomonas aeruginosa; assay: Effect on twitching capacity of ofloxacin resistant Pseudomonas aeruginosa 1 ocular isolate assessed as reduction of motility zone at 1/2 times of MIC incubated for 24 hrs; assay type: functional; parameters: scale not given: the % may be the effect or the level left
[2] = test system: Pseudomonas aeruginosa; assay: Antibiofilm activity against ofloxacin resistant Pseudomonas aeruginosa 1 ocular isolate assessed as inhibition of biofilm biomass at 1/2 times of MIC measured after 24 hrs by safranin staining based spectrophotometer EIA reader analysis; assay type: functional
[3] = test system: Escherichia coli; assay: Antibacterial activity against Escherichia coli ATCC 10536 assessed as bacterial growth inhibition measured after 24 hrs by CLSI based microdilution method; assay type: functional
[4] = test system: Pseudomonas aeruginosa; assay: Antibacterial activity against Pseudomonas aeruginosa ATCC 9027 assessed as bacterial growth inhibition measured after 24 hrs by CLSI based microdilution method; assay type: functional
[5] = test system: Pseudomonas aeruginosa; assay: Antibacterial activity against Pseudomonas aeruginosa DSM 102273 assessed as bacterial growth inhibition measured after 24 hrs by CLSI based microdilution method; assay type: functional
[6] = test system: Pseudomonas aeruginosa; assay: Antibacterial activity against ofloxacin resistant Pseudomonas aeruginosa 1 ocular isolate assessed as bacterial growth inhibition measured after 24 hrs by CLSI based microdilution method; assay type: functional
[7] = test system: Escherichia coli; assay: Bactericidal activity against Escherichia coli ATCC 10536 assessed as bacterial growth inhibition measured after 24 to 48 hrs by CLSI based microdilution method; assay type: functional; conditions: time 24-48 hrs
[8] = test system: Pseudomonas aeruginosa; assay: Bactericidal activity against Pseudomonas aeruginosa ATCC 9027 assessed as bacterial growth inhibition measured after 24 to 48 hrs by CLSI based microdilution method; assay type: functional; conditions: time 24-48 hrs
[9] = test system: Pseudomonas aeruginosa; assay: Bactericidal activity against Pseudomonas aeruginosa DSM 102273 assessed as bacterial growth inhibition measured after 24 to 48 hrs by CLSI based microdilution method; assay type: functional; conditions: time 24-48 hrs
[10] = test system: Pseudomonas aeruginosa; assay: Bactericidal activity against ofloxacin resistant Pseudomonas aeruginosa 1 ocular isolate assessed as bacterial growth inhibition measured after 24 to 48 hrs by CLSI based microdilution method; assay type: functional; conditions: time 24-48 hrs
[11] = test system: Cell membrane; assay: Induction of outer membrane permeabilization in Escherichia coli ATCC 10536 assessed as crystal violet uptake at MIC incubated for 60 mins by crystal violet staining based UV-VIS spectrophotometer ( Rvb = 56%)
[12] = test system: Cell membrane; assay: Induction of outer membrane permeabilization in Pseudomonas aeruginosa ATCC 9027 assessed as crystal violet uptake at MIC incubated for 60 mins by crystal violet staining based UV-VIS spectrophotometer ( Rvb = 53%)
[13] = test system: Escherichia coli; assay: Antibiofilm activity against Escherichia coli ATCC 10536 assessed as inhibition of biofilm biomass at 1/2 times of MIC measured after 24 hrs by safranin staining based spectrophotometer EIA reader analysis; assay type: functional
[14] = test system: Pseudomonas aeruginosa; assay: Antibiofilm activity against Pseudomonas aeruginosa ATCC 9027 assessed as inhibition of biofilm biomass at 1/2 times of MIC measured after 24 hrs by safranin staining based spectrophotometer EIA reader analysis; assay type: functional
[15] = test system: Escherichia coli; assay: Bactericidal activity against Escherichia coli ATCC 10536 assessed as planktonic growth inhibition at 1/4 times of MIC measured after 24 hrs by spectrophotometer EIA reader analysis; assay type: functional
[16] = test system: Escherichia coli; assay: Bactericidal activity against Escherichia coli ATCC 10536 assessed as planktonic growth inhibition at 1/8 times of MIC measured after 24 hrs by spectrophotometer EIA reader analysis; assay type: functional
[17] = test system: Escherichia coli; assay: Antibiofilm activity against Escherichia coli ATCC 10536 assessed as inhibition of biofilm biomass at 1/4 times of MIC measured after 24 hrs by safranin staining based spectrophotometer EIA reader analysis; assay type: functional
[18] = test system: Escherichia coli; assay: Antibiofilm activity against Escherichia coli ATCC 10536 assessed as inhibition of biofilm biomass at 1/8 times of MIC measured after 24 hrs by safranin staining based spectrophotometer EIA reader analysis; assay type: functional
[19] = test system: Escherichia coli; assay: Antibiofilm activity against Escherichia coli ATCC 10536 assessed as inhibition of biofilm formation at 1/2 times of MIC measured after 24 hrs by safranin staining based light microscopy; assay type: functional, organism-based
[20] = test system: Escherichia coli; assay: Antibiofilm activity against Escherichia coli ATCC 10536 assessed as inhibition of biofilm formation at 1/4 times of MIC measured after 24 hrs by safranin staining based light microscopy; assay type: functional, organism-based
[21] = test system: Escherichia coli; assay: Antibiofilm activity against Escherichia coli ATCC 10536 assessed as formation of looser colonies at 1/2 times of MIC measured after 24 hrs by safranin staining based light microscopy; assay type: functional, organism-based
[22] = test system: Escherichia coli; assay: Antibiofilm activity against Escherichia coli ATCC 10536 assessed as formation of looser colonies at 1/4 times of MIC measured after 24 hrs by safranin staining based light microscopy; assay type: functional, organism-based
[23] = test system: Pseudomonas aeruginosa; assay: Antibiofilm activity against Pseudomonas aeruginosa ATCC 9027 assessed as reduction in preformed bacterial biofilm at 18.8 microg/ml measured after 24 hrs by safranin staining based spectrophotometer EIA reader analysis; assay type: functional; parameters: scale not given: the % may be the effect or the level left; conditions: dose 18.8 µg/ml
[24] = test system: Pseudomonas aeruginosa; assay: Antibiofilm activity against Pseudomonas aeruginosa ATCC 9027 assessed as reduction in preformed bacterial biofilm at 37.6 microg/ml measured after 24 hrs by safranin staining based spectrophotometer EIA reader analysis; assay type: functional; parameters: scale not given: the % may be the effect or the level left; conditions: dose 37.6 µg/ml
[25] = test system: Pseudomonas aeruginosa; assay: Antibiofilm activity against Pseudomonas aeruginosa ATCC 9027 assessed as reduction in preformed bacterial biofilm at 75 microg/ml measured after 24 hrs by safranin staining based spectrophotometer EIA reader analysis; assay type: functional; parameters: scale not given: the % may be the effect or the level left; conditions: dose 75 µg/ml
[26] = test system: Escherichia coli; assay: Antibiofilm activity against Escherichia coli ATCC 10536 assessed as reduction in preformed bacterial biofilm at 150 microg/ml measured after 24 hrs by safranin staining based spectrophotometer EIA reader analysis; assay type: functional; parameters: scale not given: the % may be the effect or the level left; conditions: dose 150 µg/ml
[27] = test system: Escherichia coli; assay: Effect on swarming capacity of Escherichia coli ATCC 10536 assessed as reduction of motility zone at 1/2 times of MIC incubated for 24 hrs; assay type: functional; parameters: scale not given: the % may be the effect or the level left
[28] = test system: Escherichia coli; assay: Effect on twitching capacity of Escherichia coli ATCC 10536 assessed as reduction of motility zone at 1/2 times of MIC incubated for 24 hrs; assay type: functional; parameters: scale not given: the % may be the effect or the level left
[29] = test system: Pseudomonas aeruginosa; assay: Effect on swarming capacity of Pseudomonas aeruginosa ATCC 9027 assessed as reduction of motility zone at 1/2 times of MIC incubated for 24 hrs; assay type: functional; parameters: scale not given: the % may be the effect or the level left
[30] = test system: Pseudomonas aeruginosa; assay: Effect on twitching capacity of Pseudomonas aeruginosa ATCC 9027 assessed as reduction of motility zone at 1/2 times of MIC incubated for 24 hrs; assay type: functional; parameters: scale not given: the % may be the effect or the level left

In the case of CCCCCCCCCCCCOc1c2cc(C[N+](C)(C)CCO)cc1Cc1cc(C[N+](C)(C)CCO)cc(c1OCCCCCCCCCCCC)Cc1cc(C[N+](C)(C)CCO)cc(c1OCCCCCCCCCCCC)Cc1cc(C[N+](C)(C)CCO)cc(c1OCCCCCCCCCCCC)C2.[Cl-].[Cl-].[Cl-].[Cl-], the Activity [1] is reported as 50%, the “inhibition (INH)” value [2] is reported as 40% and the MIC [3] is reported as 18.8 µg/mL. It also gave an MIC [4] of 9.4 µg/mL, an MIC [5] of 18.8 µg/mL and an MIC [6] of 9.4 µg/mL. The MBC [7] was 18.8 µg/mL, the MBC [8] was 18.8 µg/mL and the MBC [9] was 18.8 µg/mL. For the same molecule, the MBC [10] was 18.8 µg/mL, the Activity [11] was 78.8% and the Activity [12] was 71.6%. The “inhibition (INH)” value [13] was 90.4%, the “inhibition (INH)” value [14] was 40% and the “inhibition (INH)” value [15] was 14.5%. For the same molecule, the “inhibition (INH)” value [16] was 1.8%, the “inhibition (INH)” value [17] was 77.6% and the “inhibition (INH)” value [18] was 51%. For the same molecule, the Activity [19] was “Active”, the Activity [20] was “Active” and the Activity [21] was “Active”. For the same molecule, the Activity [22] was “Active”, the Activity [23] was 37% and the Activity [24] was 37%. The Activity [25] was 58%, the Activity [26] was 66.5% and the Activity [27] was 50%. For the same molecule, the Activity [28] was 50%, the Activity [29] was 50% and the Activity [30] was 50%.
